Read-outs that look alike come from different tables or passages of the source.
Key:
[1] = tested on: CD34+CD38+ hematopoietic progenitors from adult bone marrow; experiment: Myeloid colony-forming unit (CFU) assay; assay type: cell-based, human; conditions: for IC50: 14 days; for Colony output for CFU-E, CFU-G and CFU-M (output of the different types of myeloid colonies): scored differentially
Source text: Adult Bone Marrow Cells (ABM): Bone marrow samples were obtained by sternal puncture from hematologically normal donors undergoing cardiac surgery, after obtaining informed consent according to the ethical regulations of the University of Antwerp. Cells were collected in IMDM supplemented with 10% FCS and 100 U/ml heparin and separated by density gradient as mentioned for PBMC. After washing, cells were resuspended in IMDM 10% FCS and were sorted on a FACStar (Becton Dickinson, Erembodegem, Belgium). Cell sorting: ABM cells (10^7 cells/ml) were incubated with 43A1 hybridoma supernatant at a 1/10 dilution for 20 minutes at 4° C. The supernatant of the 43A1 hybridoma (immunoglobulin IgG3) was kindly donated by Dr. […] (University of Tübingen, Germany) and was used as a source of anti-CD34 antibodies. After washing twice in IMDM, the cells were incubated with FITC-conjugated rabbit anti-mouse IgG (1/40 dilution) for 20 min at 4° C. […] After washing twice in IMDM, the cells were sorted on a FACStarPlus cell sorter equipped with an water-cooled argon ion laser (INNOVA Enterprise Ion Laser) with multiple wave length outputs including UV (488 nm). Cells with low-to-medium forward and low side scatter, highly positive green (CD34) fluorescence, and an orange (CD38) fluorescence signal lower than the mean fluorescence of cells labeled with an irrelevant isotype-matched control antibody were retained as CD34^+CD38^- cells; cells with an orange fluorescence above this threshold were retained as CD34^+CD38^+ cells. Myeloid Colony-forming unit (CFU) assays: Direct myeloid colony formation of CD34^+CD38^+ cells was assessed in a CFU assay. These assays were initiated with 500 cells per well and plated in duplicate in methylcellulose (0.9%) supplemented with 20% FCS, 1% bovine serum albumin (BSA), 10^-5 M mercaptoethanol and 10 vol. % 5637 conditioned medium of the 5637 bladder carcinoma cell line (containing G-CSF and GM-CSF), 2 U/ml erythropoietin and 30 U/ml interleukine-3 (IL-3). […] The following colony types were scored: myeloid colonies: macrophage (CFU-M), granulocyte (CFU-G), and granulocyte-macrophage (CFU-GM); erythroid colonies (BFU-E (burst-forming units, erythroid) and CFU-E); and mixed erythroid-myeloid colonies (CFU-Mix). CD34^+CD38^+ hematopoietic progenitors (HPC) from adult bone marrow were isolated and investigated for response to novel compounds. CD34^+CD38^+ cells were grown in a methylcellulose system in the presence of increasing concentrations of compounds.

[2] = tested on: T-lymphocyte leukemia Molt3 cell line; experiment: Cell proliferation of Molt3, flow cytometric cell count; assay type: cell-based, human; conditions: 96 hours
Protocol: (§1) Cell lines: Human leukemic cell lines were obtained from the American Type Culture Collection (ATCC, Rockville, Md., USA). They were cultured in Iscove's Modified Dulbecco's Medium (IMDM) supplemented with 10% heat inactivated fetal calf serum (FCS), 200 U/ml penicillin, 200 μg/ml streptomycin and 1 μg/ml amphotericin B. Cells were cultured in a 5% CO2-95% air fully humidified incubator. For effects on clonogenic output, 1000 cells/well were plated in duplicate in methylcellulose (0.9%), supplemented with 20% FCS for 14 days.
Cells were plated at 10000 per well in 200 μl IMDM medium and incubated with 0-50 μM of the novel compounds (Tab 8), by addition of drug directly to the culture medium and incubated at 37° C. for 96 hours (Tab 8). Absolute cell number was determined by addition of a known concentration Fluoresbrite microspheres (FITC) (Polysciences, Inc.). The absolute number of cells/well was calculated as: {(total number of beads added/well)/(number of beads measured)×(number of measured cells in the gate of interest)}. All analyses were performed with a FACScan (BD), using CELLQuest software (Becton Dickinson).
Response of the myeloid leukemia KG1 and T-lymphocyte leukemia Molt3 cell lines to the cytostatic effect of the novel compounds was determined using the above-mentioned standardized bead suspension that was used to determine the absolute cell number by flow cytometric (FCM) measurement. Cells were grown in the presence of increasing concentration of the novel compounds.

cdk1/cyclin B (CDC2) = cdk1/cyclin B (CDC2) (Homo sapiens, UniProt P06493); experiment: CDK inhibition assay, cdk1/cyclin B (CDC2) kinase, histone phosphorylation; assay type: biochemical; conditions: cell free system (Table 8)
Summary of the method: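 Human cdk1/cyclin B activity measured with 1 mg/ml histone substrate, 15 μM ATP plus [γ-32P]ATP, in HEPES pH 7.4 buffer with 10 mM MgCl2. Phosphorylation quantified by phosphorimaging; activity expressed as % of maximum, IC50 from dose-response curves by graphic analysis.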

KG1 = experiment: Clonogenic output of KG1 in methylcellulose; assay type: cell-based, human; conditions: 25 μM
Protocol: as §1
Clonogenic output of KG1 was tested in methylcellulose with 25 μM of some of the novel compounds. Colony output vs. control cultures without novel compound, was 16% for 26, 19% for […] and 0% for 201.

[3] = total colony output, read-out: CFU IC50

cdk1/cyclin B (CDC2), sequence (P06493 whole entry, species assumed): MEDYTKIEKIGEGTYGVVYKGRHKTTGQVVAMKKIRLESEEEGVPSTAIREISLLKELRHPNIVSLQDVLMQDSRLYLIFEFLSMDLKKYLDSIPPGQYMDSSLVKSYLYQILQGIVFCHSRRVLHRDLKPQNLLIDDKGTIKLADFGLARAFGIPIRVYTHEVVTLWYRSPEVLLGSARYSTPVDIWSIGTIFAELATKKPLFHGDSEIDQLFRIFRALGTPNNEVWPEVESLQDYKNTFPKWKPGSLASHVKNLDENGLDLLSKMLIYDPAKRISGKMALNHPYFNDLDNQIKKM
cdk1/cyclin B (CDC2), sequence (P14635 whole entry partner, species assumed): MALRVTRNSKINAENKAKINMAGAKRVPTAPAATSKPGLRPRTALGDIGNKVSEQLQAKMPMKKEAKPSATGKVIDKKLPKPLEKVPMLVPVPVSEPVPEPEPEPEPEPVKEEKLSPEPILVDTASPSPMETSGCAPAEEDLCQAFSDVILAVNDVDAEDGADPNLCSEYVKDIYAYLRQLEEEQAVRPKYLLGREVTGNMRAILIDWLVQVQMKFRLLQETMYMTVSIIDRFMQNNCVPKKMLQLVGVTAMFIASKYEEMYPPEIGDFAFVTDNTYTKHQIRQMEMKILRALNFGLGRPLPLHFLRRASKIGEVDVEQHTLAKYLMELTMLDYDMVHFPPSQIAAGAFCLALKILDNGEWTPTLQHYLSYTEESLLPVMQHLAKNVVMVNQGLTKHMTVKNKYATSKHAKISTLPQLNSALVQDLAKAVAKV

Molecule | IC50 ([1]; Homo sapiens, 336 h, methylcellulose, read-out: IC50 on CD34+CD38+ hematopoietic progenitors) | IC50 ([1]; Homo sapiens, 336 h, total colony output, read-out: CFU IC50) | IC50 ([2]; Homo sapiens, MOLT-3) | IC50 (cdk1/cyclin B (CDC2)) | IC50 [1, 3] | IC50 [2] | Colony output vs. control cultures (KG1) | Colony output for CFU-E, CFU-G and CFU-M (output of the different types of myeloid colonies) [1]
5-(3-aminopropylamino)-7-benzylamino-3-isopropylpyrazolo[4,3-d]pyrimidine [Compound 17] |  |  |  | 11 µM | 17 µM | 9.3 ± 0.3 µM |  | significantly lower colony output
5-(3-hydroxypropylamino)-7-[(R,S)-(1-phenyl-2-hydroxyethyl)amino-3-isopropylpyrazolo[4,3-d]pyrimidine [Compound 172] |  |  |  | > 50 µM | > 20 µM | 8 ± 1.5 µM |  | significantly lower colony output
5-(3-aminoethylamino)-7-(3,4-dihydroxybenzyl)amino-3-isopropylpyrazolo[4,3-d]pyrimidine [Compound 201] |  |  |  | 0.5 µM | 4.5 µM | 12 ± 1.8 µM | 0% | significantly lower colony output

Now from value to molecule, other results behind:

IC50 ([1]; Homo sapiens, 336 h, methylcellulose, read-out: IC50 on CD34+CD38+ hematopoietic progenitors) | IC50 ([1]; Homo sapiens, 336 h, total colony output, read-out: CFU IC50) | IC50 ([2]; Homo sapiens, MOLT-3) | IC50 (cdk1/cyclin B (CDC2)) | IC50 [1, 3] | IC50 [2] | Molecule | Colony output vs. control cultures (KG1) | Colony output for CFU-E, CFU-G and CFU-M (output of the different types of myeloid colonies) [1]
> 50 µM | 5.4 ± 0.4 µM | 8 ± 0.4 µM | 30 µM |  |  | CCCCCCNc1nc(NC(CO)c2ccccc2)c2[nH]nc(C(C)C)c2n1 (centres unmarked) [Compound 98, 5-(hexylamino)-7-(1-phenyl-2-hydroxyethylamino)-3-isopropylpyrazolo[4,3-d]pyrimidine] | 19% | 
 |  |  | > 100 µM | > 50 µM | 17 ± 2.9 µM | 5-(methylthio)-7-[N-(3,4-dihydroxybenzyl-N-methyl]amino-3 isopropylpyrazolo[4,3-d]pyrimidine [Compound 26] | 16% | no significant difference

Source: patent US7745450B2, “Pyrazolo[4,3-d]pyrimidines, processes for their preparation and methods for therapy” (Institute of Experimental Botany, priority 2002, dated 2010)
